Test results taken from patent US11123337B2, “4-methylsulfonyl-substituted piperidine urea compounds” (MYOKARDIA, INC., priority 2015, dated 2021).

The compounds below were run against bovine cardiac myosin (Bos taurus, UniProt Q9BE39) (assay: Myosin activation assay (PK/LDH-coupled ATPase, bovine cardiac myofibrils)). Details: AC20 = concentration at which total response is increased by twenty percent.
Assay type: biochemical
Summary of the method: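 Skinned bovine cardiac myofibrils (1 mg/mL) in PIPES/MgCl2 buffer pH 6.8 at free Ca2+ giving ~50% (pCa ~6) or <5% (pCa 10) activation, with 50 μM ATP and 3.3% DMSO. ATPase rate from NADH absorbance at 340 nm (PK/LDH coupling) over 15 min at ambient temperature. AC20/AC50 from a four-parameter fit of DMSO-normalised rates.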

Sequence of bovine cardiac myosin (Q9BE39 whole entry): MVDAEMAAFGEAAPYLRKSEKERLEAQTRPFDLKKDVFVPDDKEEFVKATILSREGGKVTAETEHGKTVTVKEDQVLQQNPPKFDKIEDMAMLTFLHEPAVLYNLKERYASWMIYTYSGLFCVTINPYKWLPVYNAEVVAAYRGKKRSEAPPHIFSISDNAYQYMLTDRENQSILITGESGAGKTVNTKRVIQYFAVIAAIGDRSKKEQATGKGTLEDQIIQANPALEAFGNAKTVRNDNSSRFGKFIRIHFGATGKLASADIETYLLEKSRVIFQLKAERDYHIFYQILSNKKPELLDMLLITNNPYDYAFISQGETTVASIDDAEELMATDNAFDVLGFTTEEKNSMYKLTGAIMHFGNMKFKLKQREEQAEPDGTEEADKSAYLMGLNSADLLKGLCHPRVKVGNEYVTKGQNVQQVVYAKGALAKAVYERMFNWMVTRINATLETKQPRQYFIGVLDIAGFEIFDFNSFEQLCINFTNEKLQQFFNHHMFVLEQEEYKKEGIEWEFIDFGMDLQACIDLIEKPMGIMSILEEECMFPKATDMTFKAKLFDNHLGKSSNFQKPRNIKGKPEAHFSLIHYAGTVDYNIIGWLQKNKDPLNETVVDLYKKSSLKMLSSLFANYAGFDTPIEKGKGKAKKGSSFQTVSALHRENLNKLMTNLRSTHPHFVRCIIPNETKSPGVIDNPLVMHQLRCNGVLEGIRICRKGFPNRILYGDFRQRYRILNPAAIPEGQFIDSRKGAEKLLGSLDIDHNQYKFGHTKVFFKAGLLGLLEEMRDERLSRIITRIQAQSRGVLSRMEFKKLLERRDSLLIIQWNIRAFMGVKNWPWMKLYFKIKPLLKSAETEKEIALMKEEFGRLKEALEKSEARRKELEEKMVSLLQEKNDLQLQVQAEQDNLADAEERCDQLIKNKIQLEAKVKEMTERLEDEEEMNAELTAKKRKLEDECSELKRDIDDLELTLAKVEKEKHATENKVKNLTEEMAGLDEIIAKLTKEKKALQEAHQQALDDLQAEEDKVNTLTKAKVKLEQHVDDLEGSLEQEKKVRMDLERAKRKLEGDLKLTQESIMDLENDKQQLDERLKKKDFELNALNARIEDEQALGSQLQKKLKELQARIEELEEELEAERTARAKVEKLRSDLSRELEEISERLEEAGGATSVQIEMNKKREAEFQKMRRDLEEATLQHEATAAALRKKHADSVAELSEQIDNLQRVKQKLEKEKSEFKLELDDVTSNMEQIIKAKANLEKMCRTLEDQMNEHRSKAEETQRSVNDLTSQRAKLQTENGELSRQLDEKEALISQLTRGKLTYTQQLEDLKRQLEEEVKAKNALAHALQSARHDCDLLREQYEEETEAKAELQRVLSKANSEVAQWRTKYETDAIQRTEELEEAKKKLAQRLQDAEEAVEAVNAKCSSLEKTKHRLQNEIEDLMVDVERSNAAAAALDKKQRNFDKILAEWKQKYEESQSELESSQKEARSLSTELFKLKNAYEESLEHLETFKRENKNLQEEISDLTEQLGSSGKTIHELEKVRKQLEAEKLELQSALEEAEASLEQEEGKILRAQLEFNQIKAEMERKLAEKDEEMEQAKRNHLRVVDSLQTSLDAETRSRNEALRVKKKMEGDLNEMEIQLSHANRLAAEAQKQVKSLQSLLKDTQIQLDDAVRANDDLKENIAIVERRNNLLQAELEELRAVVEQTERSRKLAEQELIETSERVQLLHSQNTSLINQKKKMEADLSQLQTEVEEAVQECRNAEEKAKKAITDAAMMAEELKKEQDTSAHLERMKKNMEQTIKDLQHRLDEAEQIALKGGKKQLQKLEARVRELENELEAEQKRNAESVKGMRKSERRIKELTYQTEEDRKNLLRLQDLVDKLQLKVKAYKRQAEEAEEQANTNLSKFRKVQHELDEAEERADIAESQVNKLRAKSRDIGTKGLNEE
Sequence of bovine cardiac myosin (P85100 whole entry partner): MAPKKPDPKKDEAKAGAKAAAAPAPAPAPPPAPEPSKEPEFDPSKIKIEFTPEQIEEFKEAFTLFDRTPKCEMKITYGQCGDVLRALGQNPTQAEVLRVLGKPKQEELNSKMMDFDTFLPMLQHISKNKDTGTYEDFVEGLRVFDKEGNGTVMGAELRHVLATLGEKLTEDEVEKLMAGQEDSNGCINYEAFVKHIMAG
Sequence of bovine cardiac myosin (Q3SZE5 whole entry partner): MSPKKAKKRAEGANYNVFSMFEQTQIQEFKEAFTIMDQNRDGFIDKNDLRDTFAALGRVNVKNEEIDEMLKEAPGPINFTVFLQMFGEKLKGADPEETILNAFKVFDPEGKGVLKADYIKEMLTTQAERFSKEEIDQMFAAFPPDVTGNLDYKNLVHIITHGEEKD

Row | Structure (SMILES) | Myosin Activation (AC20)
1 | C[C@H](O)c1cc(NC(=O)N2CCC(C(F)(F)S(=O)(=O)c3cccc(F)c3)CC2)ccn1 [Compound 97, (S)-4-(difluoro((3-fluorophenyl)sulfonyl)methyl)-N-(2-(1-hydroxyethyl)pyridin-4-yl)piperidine-1-carboxamide] | + (+ represents myosin activation value AC20 > 5 μM)
2 | CC(C)(C1CCN(C(=O)Nc2ccon2)CC1)S(=O)(=O)c1ccc(C#N)cc1 [Compound 102, 4-(2-((4-cyanophenyl)sulfonyl)propan-2-yl)-N-(isoxazol-3-yl)piperidine-1-carboxamide] | + (+ represents myosin activation value AC20 > 5 μM)
3 | Cc1cc(NC(=O)N2CCC(C(C)(C)S(=O)(=O)c3cn(C)nc3C(F)F)CC2)cnn1 [Compound 154, 4-(2-((3-(difluoromethyl)-1-methyl-1H-pyrazol-4-yl)sulfonyl)propan-2-yl)-N-(6-methylpyridazin-4-yl)piperidine-1-carboxamide] | + (+ represents myosin activation value AC20 > 5 μM)
4 | O=C(Nc1ccnnc1)N1CCC(CS(=O)(=O)c2cccc(F)c2)CC1 [Compound 34, 4-(((3-fluorophenyl)sulfonyl)methyl)-N-(pyridazin-4-yl)piperidine-1-carboxamide] | + (+ represents myosin activation value AC20 > 5 μM)
5 | Cc1ccc(NC(=O)N2CCC(C(C)(F)S(=O)(=O)c3ccnn3C)CC2)cn1 (stereo not shown) [Compound 225, 4-(1-fluoro-1-((1-methyl-1H-pyrazol-5-yl)sulfonyl)ethyl)-N-(6-methylpyridin-3-yl)piperidine-1-carboxamide] | ++ (++ represents myosin activation value AC20 from 2 μM-5 μM)
6 | CC(C)(C1CCN(C(=O)Nc2ccnnc2)CC1)S(=O)(=O)c1ccc(C(F)(F)F)nc1 [Compound 171, N-(pyridazin-4-yl)-4-(2-((6-(trifluoromethyl)pyridin-3-yl)sulfonyl)propan-2-yl)piperidine-1-carboxamide] | ++ (++ represents myosin activation value AC20 from 2 μM-5 μM)
7 | Cn1nccc1S(=O)(=O)C(C)(C)C1CCN(C(=O)Nc2ccncc2)CC1 [Compound 194, 4-(2-((1-methyl-1H-pyrazol-5-yl)sulfonyl)propan-2-yl)-N-(pyridin-4-yl)piperidine-1-carboxamide] | ++ (++ represents myosin activation value AC20 from 2 μM-5 μM)
8 | Cc1cc(NC(=O)N2CCC(C(C)(C)S(=O)(=O)c3cccc(F)c3)CC2)no1 [Compound 142, 4-(2-((3-fluorophenyl)sulfonyl)propan-2-yl)-N-(5-methylisoxazol-3-yl)piperidine-1-carboxamide] | + (+ represents myosin activation value AC20 > 5 μM)
9 | Cn1nc(C(F)F)cc1S(=O)(=O)C(C)(C)C1CCN(C(=O)Nc2ccc(F)nc2)CC1 [Compound 106, 4-(2-((3-(difluoromethyl)-1-methyl-1H-pyrazol-5-yl)sulfonyl)propan-2-yl)-N-(6-fluoropyridin-3-yl)piperidine-1-carboxamide] | ++ (++ represents myosin activation value AC20 from 2 μM-5 μM)
10 | Cn1nc(C(C)(C)C)cc1S(=O)(=O)C(F)(F)C1CCN(C(=O)Nc2ccnnc2)CC1 [Compound 89, 4-(((3-(tert-butyl)-1-methyl-1H-pyrazol-5-yl)sulfonyl)difluoromethyl)-N-(pyridazin-4-yl)piperidine-1-carboxamide] | + (+ represents myosin activation value AC20 > 5 μM)
11 | Cc1ccc(NC(=O)N2CCC(C(C)(F)S(=O)(=O)c3cccc(F)c3)CC2)cn1 (stereo not shown) [Compound 295, 4-(1-fluoro-1-((3-fluorophenyl)sulfonyl)ethyl)-N-(6-methylpyridin-3-yl)piperidine-1-carboxamide] | + (+ represents myosin activation value AC20 > 5 μM)
12 | Cc1cc(S(=O)(=O)C(C)(C)C2CCN(C(=O)Nc3ccncc3)CC2)n(C)n1 [Compound 186, 4-(2-((1,3-dimethyl-1H-pyrazol-5-yl)sulfonyl)propan-2-yl)-N-(pyridin-4-yl)piperidine-1-carboxamide] | +++ (+++ represents myosin activation value AC20 < 2 μM)
13 | Cc1ncc(NC(=O)N2CCC(C(C)(C)S(=O)(=O)c3cccc(F)c3)CC2)cn1 [Compound 141, 4-(2-((3-fluorophenyl)sulfonyl)propan-2-yl)-N-(2-methylpyrimidin-5-yl)piperidine-1-carboxamide] | + (+ represents myosin activation value AC20 > 5 μM)
14 | COc1ccc(F)cc1S(=O)(=O)C(F)(F)C1CCN(C(=O)Nc2ccnnc2)CC1 [Compound 68, 4-(difluoro((5-fluoro-2-methoxyphenyl)sulfonyl)methyl)-N-(pyridazin-4-yl)piperidine-1-carboxamide] | + (+ represents myosin activation value AC20 > 5 μM)
15 | O=C(Nc1ccnnc1)N1CCC(C(F)(F)S(=O)(=O)c2cnn3ccccc23)CC1 [Compound 93, 4-(difluoro(pyrazolo[1,5-a]pyridin-3-ylsulfonyl)methyl)-N-(pyridazin-4-yl)piperidine-1-carboxamide] | ++ (++ represents myosin activation value AC20 from 2 μM-5 μM)
16 | Cc1ccc(NC(=O)N2CCC(C(C)(C)S(=O)(=O)c3cccc(F)c3)CC2)cn1 [Compound 162, 4-(2-((3-fluorophenyl)sulfonyl)propan-2-yl)-N-(6-methylpyridin-3-yl)piperidine-1-carboxamide] | + (+ represents myosin activation value AC20 > 5 μM)
17 | Cc1ccc(NC(=O)N2CCC(C(C)(F)S(=O)(=O)c3cn(C)nc3C(F)(F)F)CC2)cn1 (stereo not shown) [Compound 247, 4-(1-fluoro-1-((1-methyl-3-(trifluoromethyl)-1H-pyrazol-4-yl)sulfonyl)ethyl)-N-(6-methylpyridin-3-yl)piperidine-1-carboxamide] | + (+ represents myosin activation value AC20 > 5 μM)
18 | Cc1cc(S(=O)(=O)C(C)(C)C2CCN(C(=O)Nc3cnns3)CC2)n(C)n1 [Compound 188, 4-(2-((1,3-dimethyl-1H-pyrazol-5-yl)sulfonyl)propan-2-yl)-N-(1,2,3-thiadiazol-5-yl)piperidine-1-carboxamide] | +++ (+++ represents myosin activation value AC20 < 2 μM)
19 | N#Cc1cc(C(F)(F)F)ccc1S(=O)(=O)C(F)(F)C1CCN(C(=O)Nc2ccnnc2)CC1 [Compound 3, 4-(((2-Cyano-4-(trifluoromethyl)phenyl)sulfonyl)difluoromethyl)-N-(pyridazin-4-yl)piperidine-1-carboxamide] | +++ (+++ represents myosin activation value AC20 < 2 μM)
20 | Cn1nc(C(F)(F)F)cc1S(=O)(=O)C(C)(C)C1CCN(C(=O)Nc2ccnnc2)CC1 [Compound 137, 4-(2-((1-methyl-3-(trifluoromethyl)-1H-pyrazol-5-yl)sulfonyl)propan-2-yl)-N-(pyridazin-4-yl)piperidine-1-carboxamide] | +++ (+++ represents myosin activation value AC20 < 2 μM)
21 | CC(C1CCN(C(=O)Nc2ccncc2)CC1)S(=O)(=O)c1cccc(F)c1 (stereo not shown) [Compound 31, 4-(1-((3-fluorophenyl)sulfonyl)ethyl)-N-(pyridin-4-yl)piperidine-1-carboxamide] | ++ (++ represents myosin activation value AC20 from 2 μM-5 μM)
22 | CC(C)(C1CCN(C(=O)Nc2nnco2)CC1)S(=O)(=O)c1cccc(F)c1 [Compound 153, 4-(2-((3-fluorophenyl)sulfonyl)propan-2-yl)-N-(1,3,4-oxadiazol-2-yl)piperidine-1-carboxamide] | + (+ represents myosin activation value AC20 > 5 μM)
